Reference: patent EP4793271A1, “NEUROPROTECTIVE AGENT” (National Center of Neurology and Psychiatry, priority 2023, dated 2025)
pIC50: −log10 of the molar value.

Experiments:
[1] = tested on: primary cultured cells of mouse fetus-derived dorsal root ganglia (DRGs); assay: Suppression of axonal degeneration after axotomy in DRG explant culture; format: cell-based; conditions: minimum concentration at which axonal degeneration was suppressed (DI 0.3 or less), 24 hours after axotomy; for minimal effective concentration: Mus musculus, read-out: Evaluation on protection against degeneration
Summary of the method: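 Embryonic ICR mouse DRG explants were cultured 7–8 days in nicotinamide-free neuronal medium with NGF, then axotomized by removing the cell bodies. Compound (100 pM–10 µM final, 0.1% DMSO) was added within 30 min, and neurites were imaged 24 h later. The result is the lowest concentration giving degeneration index ≤0.3.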

[2] = target: T1, nicotinamide phosphoribosyl transferase (NAMPT) (Homo sapiens, UniProt P43490); assay: NAMPT activity measurement (NMN fluorescence detection); format: biochemical; conditions: NAMPT recombinant protein, 10 µM Nam; for pIC50: read-out: Evaluation on NAMPT inhibitory
T1 construct: purchased Medical & Biological Laboratories Co., Ltd. (MBL)
T1 sequence (P43490 whole entry, species assumed): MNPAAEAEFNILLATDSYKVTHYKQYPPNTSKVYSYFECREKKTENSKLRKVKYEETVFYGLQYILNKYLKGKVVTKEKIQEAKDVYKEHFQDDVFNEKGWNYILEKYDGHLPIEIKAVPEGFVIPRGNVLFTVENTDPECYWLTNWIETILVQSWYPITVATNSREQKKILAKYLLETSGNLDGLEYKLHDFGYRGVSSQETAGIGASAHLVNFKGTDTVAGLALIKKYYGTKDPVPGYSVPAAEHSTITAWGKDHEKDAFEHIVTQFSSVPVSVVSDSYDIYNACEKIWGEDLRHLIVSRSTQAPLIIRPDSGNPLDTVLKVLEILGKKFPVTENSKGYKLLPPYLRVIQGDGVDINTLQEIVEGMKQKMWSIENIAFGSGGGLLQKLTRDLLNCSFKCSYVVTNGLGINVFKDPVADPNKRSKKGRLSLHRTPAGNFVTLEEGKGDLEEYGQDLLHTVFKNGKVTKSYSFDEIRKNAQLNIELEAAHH
Summary of the method: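 Recombinant NAMPT reacted with 10 µM Nam, 0.5 µM PRPP, 2 µM ATP in Tris pH 7.4 buffer with MgCl2, DTT, BSA; product NMN quantified by fluorescence (ex 421/em 480 nm) after derivatization with 2-acetylbenzofuran. Compounds at 3 nM–10 µM; control-normalized signal used for IC50.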

hSARM1 = target: T2, hSARM1 (Homo sapiens, UniProt Q6SZW1); assay: Human SARM1 activity measurement in HEK293 cells transiently transfected with ΔN-hSARM1 (PC6 fluorescent probe); format: cell-based; design: expressed in transfected cells; host or cells: HEK293, pcDNA3 expression vector; conditions: inhibition rate; compound 30 µM; PC6 50 µM; HEK293 cells expressing ΔN-hSARM1; approximately 48 hours from transfection; read-out: Evaluation on hSARM1 inhibitory
T2 sequence (Q6SZW1 28-724): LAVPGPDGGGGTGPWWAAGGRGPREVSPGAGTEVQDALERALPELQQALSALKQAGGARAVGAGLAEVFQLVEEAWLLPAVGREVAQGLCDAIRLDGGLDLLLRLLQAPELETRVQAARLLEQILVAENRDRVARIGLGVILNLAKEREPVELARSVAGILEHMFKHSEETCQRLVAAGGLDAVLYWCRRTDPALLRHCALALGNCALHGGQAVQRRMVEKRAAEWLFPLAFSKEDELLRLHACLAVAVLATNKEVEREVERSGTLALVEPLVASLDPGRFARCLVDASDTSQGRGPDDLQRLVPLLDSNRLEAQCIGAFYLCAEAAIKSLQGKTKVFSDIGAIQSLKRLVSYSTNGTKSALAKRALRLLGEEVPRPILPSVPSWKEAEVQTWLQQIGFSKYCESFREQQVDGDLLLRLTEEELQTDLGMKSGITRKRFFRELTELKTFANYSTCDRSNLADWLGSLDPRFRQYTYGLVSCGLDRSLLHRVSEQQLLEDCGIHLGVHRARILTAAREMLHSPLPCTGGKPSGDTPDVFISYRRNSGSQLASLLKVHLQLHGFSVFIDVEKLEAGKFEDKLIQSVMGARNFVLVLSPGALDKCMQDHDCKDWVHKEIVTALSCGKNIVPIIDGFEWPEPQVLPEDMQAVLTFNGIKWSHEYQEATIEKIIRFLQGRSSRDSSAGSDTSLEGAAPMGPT
Summary of the method: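 HEK293 cells in nicotinamide-free DMEM with 5 μM nicotinamide, transiently transfected with mitochondrial-targeting-deleted ΔN-hSARM1; PC6 base-exchange fluorescent probe (50 μM) plus compound (30 μM) added ~8 h post-transfection. Fluorescence (ex 405/em 525 nm) read ~48 h from transfection; inhibition % versus transfected DMSO control, untransfected background subtracted.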

Compound	minimal effective concentration [1] [µM]	Evaluation on NAMPT inhibitory [2]	inhibition at 30 µM (hSARM1) [%]	Evaluation on protection against degeneration [1]	pIC50 [2]
O=C(NCCCOCCOCCCNC(=O)c1ccc2ncccc2c1)c1cccnc1 [Compound 188]	≤ 0.01	○	> 25	–	–
O=C(NCCCCCCCCOCCO)c1cccnc1 [compound 4]	–	○	> 75	A (A ≤ 0.01 µM)	–
O=C(NCCCCCCCCOCCOCCO)c1cccnc1 [compound 6]	≤ 0.01	–	> 75	–	≤ 7.00
O=C(NCCCCCCCCOCCOCCOCCO)c1cccnc1 [compound 8]	≤ 0.01	–	> 50	–	≤ 7.00
C#CCOCCOCCNC(=O)c1cccnc1 [compound 11]	0.01 to 0.1	○	> 10	–	–
O=C(NCCOCCOc1ccc(CNC(=O)c2ccccc2)cc1)c1cccnc1 [compound 13]	0.01 to 0.1	○	> 75	–	–
O=C(NCCCOc1ccc(CNC(=O)c2ccccc2)cc1)c1cccnc1 [compound 15]	≤ 0.01	–	> 75	–	≤ 7.00
O=C(/C=C/c1cccnc1)NCCCOc1ccc(CNC(=O)c2ccccc2)cc1 [compound 16]	≤ 0.01	–	> 75	–	≤ 7.00
O=C(/C=C/c1cccnc1)NCCOCCOc1ccccc1 [compound 17]	≤ 0.01	–	> 75	–	≤ 7.00
COc1cccc(OCCCNC(=O)/C=C/c2cccnc2)c1 [compound 18]	≤ 0.01	–	> 75	–	≤ 7.00
COc1cccc(OCCNC(=O)/C=C/c2cccnc2)c1 [compound 19]	≤ 0.01	–	> 75	–	≤ 7.00
CC(=O)NCc1ccc(OCCCNC(=O)c2cccnc2)cc1 [compound 20]	0.01 to 0.1	○	> 75	–	–
CC(=O)NCc1ccc(OCCOCCNC(=O)c2cccnc2)cc1 [compound 21]	≤ 0.01	○	> 50	–	–
CC(=O)NCc1ccc(OCCOCCNC(=O)/C=C/c2cccnc2)cc1 [compound 22]	≤ 0.01	–	> 75	–	≤ 7.00
COCOc1cccc(OCCCNC(=O)c2cccnc2)c1 [compound 25]	–	○	> 75	B (0.01 µM < B ≤ 0.1 µM)	–
O=C(NCCOCCOc1cccc(O)c1)c1cccnc1 [compound 27]	0.01 to 0.1	–	> 75	–	≤ 7.00
COc1cccc(OCCOCCNC(=O)/C=C/c2cccnc2)c1 [compound 28]	≤ 0.01	–	> 75	–	≤ 7.00
COCOc1cccc(OCCOCCNC(=O)c2cccnc2)c1 [compound 30]	0.01 to 0.1	○	> 50	–	–
COC(=O)c1ccc(OCCOCCNC(=O)/C=C/c2cccnc2)cc1 [compound 31]	≤ 0.01	–	> 75	–	≤ 7.00
COC(=O)c1ccc(OCCOCCNC(=O)c2cccnc2)cc1 [compound 32]	≤ 0.01	○	> 50	–	–
O=C(NCCOCCOCCNC(=O)c1cccnc1)c1cccnc1 [compound 34]	≤ 0.01	○	> 75	–	–
O=C(/C=C/c1cccnc1)NCCOCCNC(=O)/C=C/c1cccnc1 [compound 37]	0.01 to 0.1	○	> 75	–	–

Compound	minimal effective concentration [1] [µM]	Evaluation on NAMPT inhibitory [2]	inhibition at 30 µM (hSARM1) [%]	Evaluation on protection against degeneration [1]	pIC50 [2]
O=C(/C=C/c1cccnc1)NCCCNC(=O)/C=C/c1cccnc1 [compound 39]	≤ 0.01	○	> 75	–	–
O=C(CNC(=O)c1cccnc1)NCCNC(=O)CNC(=O)c1cccnc1 [compound 40]	0.1 to 1	○	> 10	–	–
O=C(CNC(=O)c1cccnc1)NCCCCCCNC(=O)CNC(=O)c1cccnc1 [compound 41]	≤ 0.01	○	> 75	–	–
C/C(=C\C(=O)NCCOCCNC(=O)/C=C(\C)c1cccnc1)c1cccnc1 [compound 43]	≤ 0.01	–	> 75	–	≤ 7.00
O=C(NCCCCCCNC(=O)c1cncc(O)c1)c1cccnc1 [compound 57]	0.01 to 0.1	–	> 75	–	≤ 7.00
O=C(/C=C/c1cccnc1)Nc1cccc(NC(=O)/C=C/c2cccnc2)n1 [compound 59]	–	○	> 25	A (A ≤ 0.01 µM)	–
O=C(/C=C/c1cccnc1)NCc1cccc(NC(=O)/C=C/c2cccnc2)c1 [compound 61]	≤ 0.01	–	> 75	–	≤ 7.00
O=C(NCCCNS(=O)(=O)c1ccccc1[N+](=O)[O-])c1cccnc1 [compound 63]	0.1 to 1	○	> 10	–	–
O=C(/C=C/c1cccnc1)Nc1ccc(CNC(=O)c2ccccc2)cc1 [compound 64]	≤ 0.01	–	> 75	–	≤ 7.00
O=C(CCc1ccccc1)NCc1ccc(CNC(=O)c2cccnc2)cc1 [compound 65]	≤ 0.01	○	> 75	–	–
C#CCOc1cncc(C(=O)Nc2ccc(CNC(=O)c3cccnc3)cc2)c1 [compound 67]	≤ 0.01	–	> 75	–	≤ 7.00
CC(C)(C)OC(=O)NCCCOCCOCCCNC(=O)c1cccnc1 [compound 70]	≤ 0.01	○	> 50	–	–
CC(C)(C)OC(=O)NCCOCCOCCNC(=O)c1cccnc1 [compound 71]	–	○	> 50	A (A ≤ 0.01 µM)	–
CC(C)C(=O)Nc1ccc(CNC(=O)c2cccnc2)cn1 [compound 72]	0.01 to 0.1	○	> 50	–	–
N#Cc1ccc(C(=O)Nc2ccc(CNC(=O)c3cccnc3)cn2)cc1 [compound 73]	≤ 0.01	○	> 50	–	–
O=C(/C=C/c1ccccc1)Nc1ccc(CNC(=O)c2cccnc2)cn1 [compound 74]	0.01 to 0.1	○	> 75	–	–
O=C(/C=C/c1cccnc1)Nc1ccc(CNC(=O)c2cccnc2)cn1 [compound 75]	≤ 0.01	–	> 75	–	≤ 7.00
Cc1ccc(C(=O)Nc2ccc(CNC(=O)/C=C/c3cccnc3)cn2)cc1 [compound 78]	≤ 0.01	○	> 75	–	–
C=Cc1ccc(C(=O)Nc2ccc(CNC(=O)c3cccnc3)cn2)cc1 [compound 80]	≤ 0.01	–	> 75	–	≤ 7.00
O=C(NCc1ccc(NC(=O)c2ccccc2C(F)(F)F)nc1)c1cccnc1 [compound 81]	0.01 to 0.1	○	> 50	–	–
O=C(NCc1ccc(NC(=O)c2cccc(C(F)(F)F)c2)nc1)c1cccnc1 [compound 82]	≤ 0.01	○	> 75	–	–
